Entries after “also recorded” stand apart in the source; their conditions may differ.
Tests used:
free radicals = conditions: cited from earlier work
IL-1ra [1] = assay: Immunohistochemistry of IL-1ra expression in explants of acneic skin; format: cell-based, human; conditions: for intensity of expression of IL-1ra in the epidermis: acneic patients (n=8), 24 hours, scale 0-3
Method: (§1) A skin biopsy (1×1.5 cm) was obtained from inflammatory papulae of lesions on the back of 8 acneic patients (having received no local treatment for 2 weeks or no general treatment for 1 month, or 3 months with isotretinoin). The fragments sampled were immediately placed in culture.
(§2) The fragments of healthy skin and of acneic skin were incubated at 37° C. in a humid atmosphere and in the presence of 5% CO2 for 24 hours in KGM culture medium without hydrocortisone (PromoCell, Heidelberg, Germany). The culture medium was supplemented with 2 different concentrations of adapalene (Galderma, Sophia Antipolis): 10^−7 M and 10^−6 M. The culture medium alone served as control medium.
(§3) After incubation, the explants were removed from the culture medium and were then frozen in liquid nitrogen for the immunohistochemical study. The culture supernatants were frozen at −80° C. to evaluate the protein secretion using an ELISA assay technique.
(§4) The expression of IL-1ra was evaluated by an immunoperoxidase technique in the explants of healthy skin from 8 healthy donors and of the acneic skin from 8 patients.
For this, cryostat sections 5 μm thick were cut from the skin explants, and were then fixed in acetone at 4° C. for 10 minutes. […]
After washing for 15 minutes in TBS/0.1% BSA/0.05% Tween 20, the slides were incubated with a biotinylated secondary antibody (DAKO) for 30 minutes at ambient temperature and in a humid atmosphere. […] The slides were read under a microscope.
(§5) The slides were read under a Leitz microscope by 2 investigators.
A semi-quantitative scale was used to define the intensity of the labeling: 0=none, 1=weak, 2=medium, 3=strong. […]

RARβ = target: T1, RARβ (Homo sapiens, UniProt P10826); conditions: cited from earlier work
T1 sequence (P10826 1-455): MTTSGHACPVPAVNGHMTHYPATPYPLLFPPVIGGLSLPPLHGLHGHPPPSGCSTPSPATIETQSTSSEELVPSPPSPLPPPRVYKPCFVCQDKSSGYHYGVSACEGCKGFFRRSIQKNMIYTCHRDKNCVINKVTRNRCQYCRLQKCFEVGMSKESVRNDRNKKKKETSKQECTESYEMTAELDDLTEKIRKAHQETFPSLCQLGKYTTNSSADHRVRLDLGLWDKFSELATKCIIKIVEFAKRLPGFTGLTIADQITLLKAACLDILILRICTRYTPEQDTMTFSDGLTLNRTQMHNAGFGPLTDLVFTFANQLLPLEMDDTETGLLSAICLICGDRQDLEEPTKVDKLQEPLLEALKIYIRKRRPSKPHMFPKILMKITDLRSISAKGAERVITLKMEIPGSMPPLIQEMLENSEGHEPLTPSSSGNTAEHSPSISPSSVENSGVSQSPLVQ

[2] = test system: cellular retinoic acid binding proteins; conditions: cited from earlier work
IL-1ra [3] = assay: ELISA assay of IL-1ra secreted in culture supernatants of explants of acneic skin; format: cell-based, human; conditions: for secreted amount of IL-1ra: acneic skin explants (n=8), 24 hours; for increase of secreted IL-1ra compared with the control medium: acneic skin explants
Method: as §1, §2, §3
(§6) The IL-1ra protein secretion […] in the culture supernatants of the explants of acneic skin and of healthy skin, incubated in the presence or absence of adapalene, was evaluated by means of an ELISA assay using the IL-1ra Cytoscreen detection kit (Biosource Europe S.A., Nivelles, Belgium) and according to the supplier's instructions.
(§7) A mean was established on 8 healthy donors or 8 acneic patients in each of the “control”, “10^−7 M adapalene” and “10^−6 M adapalene” groups.
(§8) The paired Wilcoxon test was employed for the statistical analysis, and p<0.05 (by comparison with the control medium) was considered to be significant.

IL-1ra [4] = assay: ELISA assay of IL-1ra secreted in culture supernatants of explants of healthy skin; format: cell-based, human; conditions: for amount of IL-1ra secreted in the culture supernatants: healthy skin explants (n=8), 24 hours
Method: (§9) Fragments of healthy skin from 8 healthy donors were obtained from mammary plasties (plastic surgery) or from a foreskin (infant surgery).
as §2, §3, §6, §7, §8

lipoxygenase pathway = conditions: cited from earlier work
[5] = test system: superficial inflammatory lesions; conditions: clinically; cited from earlier work
IL-1ra [6] = assay: Immunohistochemistry of IL-1ra expression in explants of healthy human skin; format: cell-based; conditions: for intensity of expression of IL-1ra / intensity of expression of IL-1ra in the epidermis: 24 hours; for intensity of expression of IL-1ra: scale 0-3; for intensity of expression of IL-1ra in the epidermis: healthy donors (n=8), scale 0=none to 3=strong, mean (+/−)
Method: as §9, §2, §3, §4
For this, cryostat sections 5 μm thick were cut from the skin explants, and were then fixed in acetone at 4° C. for 10 minutes. After saturation of the nonspecific sites with bovine albumin (BSA) for 30 minutes at ambient temperature, the slides were incubated for 30 minutes at ambient temperature and in a humid atmosphere in the presence of the corresponding primary antibody [anti-IL-1ra monoclonal antibody at 10 μg/ml (R&D Systems)] or of an irrelevant isotype antibody for the negative control (normal goat IgG at (R&D Systems), IgG2a monoclonal antibody (DAKO, Trappes, France), IgG1 monoclonal antibody (DAKO)).
After washing for 15 minutes in TBS/0.1% BSA/0.05% Tween 20, the slides were incubated with a biotinylated secondary antibody (DAKO) for 30 minutes at ambient temperature and in a humid atmosphere. After a further washing step, the slides were incubated for 30 minutes in the presence of streptavidin/peroxidise (DAKO) for 30 minutes at ambient temperature and in a humid atmosphere. After a final wash, the slides were incubated for 5 minutes in the presence of AEC (DAKO), a substrate for peroxidise, and then counterstained with Mayer's hemalun. The slides were read under a microscope.
as §5
A semi-quantitative scale was used to define the intensity of the labeling: 0=none, 1=weak, 2=medium, 3=strong.
as §7, §8

[7] = test system: polymorphonuclear neutrophils; conditions: cited from earlier work
RARγ = target: T2, RARγ (Homo sapiens, UniProt P13631); conditions: cited from earlier work
T2 sequence (P13631 1-454): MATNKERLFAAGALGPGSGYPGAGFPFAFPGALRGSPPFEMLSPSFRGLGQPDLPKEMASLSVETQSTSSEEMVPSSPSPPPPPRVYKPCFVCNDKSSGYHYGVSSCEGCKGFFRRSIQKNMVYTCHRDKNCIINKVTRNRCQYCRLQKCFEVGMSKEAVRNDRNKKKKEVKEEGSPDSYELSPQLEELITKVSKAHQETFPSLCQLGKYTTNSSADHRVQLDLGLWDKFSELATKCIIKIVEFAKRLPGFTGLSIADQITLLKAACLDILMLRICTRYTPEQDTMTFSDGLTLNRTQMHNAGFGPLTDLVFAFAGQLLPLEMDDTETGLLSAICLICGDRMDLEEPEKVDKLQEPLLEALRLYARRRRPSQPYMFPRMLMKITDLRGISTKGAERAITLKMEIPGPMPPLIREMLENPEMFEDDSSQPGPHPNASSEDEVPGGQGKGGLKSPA

With `COc1ccc(-c2ccc3cc(C(=O)O)ccc3c2)cc1C12CC3CC(CC(C3)C1)C2` [adapalene, 6-[3-(1-adamantyl)-4-methoxyphenyl]-2-naphthoic acid] as the molecule, how does the “production of free radicals (in words)” value (free radicals) read?
The value was “inhibits”.

And the “intensity of expression of IL-1ra in the epidermis” value (“intensity … in the epidermis” below) (IL-1ra [1]; 10^−6 M adapalene)?
Its value is 0.9 (+/−0.7).

And the “intensity … in the epidermis” value (IL-1ra [1]; 10^−7 M adapalene)?
Its value is 0.8 (+/−0.8).

And the “effect on the expression of IL-1ra in the epidermis (in words)” value (IL-1ra [1]; acneic patients, 10^−7 M and 10^−6 M)?
The value was “increases the expression”.

What about the “binding to RARβ (in words)” value (RARβ) of the same molecule?
Its value is “binds selectively”.

And the “binding to cellular retinoic acid binding proteins (in words)” value [2]?
Its value is “does not, on the other hand, bind”.

And the “secreted amount of IL-1ra” value (IL-1ra [3]; 10^−6 M adapalene)?
Its value is 1161 pg.

What about the “secreted amount of IL-1ra” value (IL-1ra [3]; 10^−7 M adapalene) of the same molecule?
Its value is 1196 pg.

What about the “increase of secreted IL-1ra compared with the control medium” value (“increase of secreted IL-1ra” for short) (IL-1ra [3]; 10^−6 M adapalene) of the same molecule?
Its value is 1.4%.

What about the “increase of secreted IL-1ra” value (IL-1ra [3]; 10^−7 M adapalene) of the same molecule?
Its value is 4.4%.

What about the “amount of IL-1ra secreted in the culture supernatants” value (IL-1ra [4]; 10^−6 M adapalene) of the same molecule?
Its value is 564 pg.

What about the “amount of IL-1ra secreted in the culture supernatants” value (IL-1ra [4]; 10^−7 M adapalene) of the same molecule?
The value was 600 pg.

What about the “decrease of secreted IL-1ra compared with the control medium” value (IL-1ra [4]; healthy skin explants, 10^−6 M adapalene) of the same molecule?
Its value is 3.5%.

What about the “increase of secreted IL-1ra” value (IL-1ra [4]; healthy skin explants, 10^−7 M adapalene) of the same molecule?
Its value is 2.6%.

What about the “oxidative metabolism of arachidonic acid via the lipoxygenase pathway (in words)” value (lipoxygenase pathway) of the same molecule?
The value was “inhibits”.

And the “production of leukotrienes via the lipoxygenase pathway (in words)” value (lipoxygenase pathway)?
Its value is “inhibits”.

What about the “clinical activity on superficial inflammatory lesions (in words)” value [5] of the same molecule?
Its value is “exhibits an activity”.

And the “intensity of expression of IL-1ra” value (IL-1ra [6]; 1st subgroup of healthy donors (n=4, weak control expression), 10^−6 M adapalene)?
Its value is 1.2 (+/−0.4).

And the “intensity of expression of IL-1ra” value (IL-1ra [6]; 1st subgroup of healthy donors (n=4, weak control expression), 10^−7 M adapalene)?
The value was 1.1 (+/−0.4).

And the “modulatory effect on the expression of IL-1ra (in words)” value (IL-1ra [6]; 1st subgroup of healthy donors, expression in the control medium weak)?
The value was “an inducing effect”.

What about the “intensity of expression of IL-1ra” value (IL-1ra [6]; 2nd subgroup of healthy donors (n=4, greater control expression), 10^−6 M adapalene) of the same molecule?
Its value is 0.5 (+/−0.0).

And the “intensity of expression of IL-1ra” value (IL-1ra [6]; 2nd subgroup of healthy donors (n=4, greater control expression), 10^−7 M adapalene)?
The value was 0.5 (+/−0.0).

What about the “modulatory effect on the expression of IL-1ra (in words)” value (IL-1ra [6]; 2nd subgroup of healthy donors, expression in the control medium greater) of the same molecule?
The value was “an inhibitory effect”.

And the “intensity … in the epidermis” value (IL-1ra [6]; 10^−6 M adapalene)?
Its value is 0.8 (+/−0.4).

What about the “intensity … in the epidermis” value (IL-1ra [6]; 10^−7 M adapalene) of the same molecule?
The value was 0.9 (+/−0.5).

What about the “modulatory effect on the expression of IL-1ra in the epidermis (in words)” value (IL-1ra [6]; mean of 8 healthy donors, 10^−7 M and 10^−6 M) of the same molecule?
Its value is “No significant modulation; also recorded: does not demonstrate a modulatory effect”.

And the “chemotaxis of polymorphonuclear neutrophils (in words)” value [7]?
Its value is “inhibits”.

And the “binding to RARγ (in words)” value (RARγ)?
Its value is “binds selectively”.
